From patent US9340577B2, “HLA binding motifs and peptides and their uses” (priority 1992, dated 2016)
No end group written: not given here.

Experiments:
Test in all cases: biochemical
Format in all cases: binding
A31 (A*3101) = A31 (A*3101) (Homo sapiens, UniProt P04439, A270S/D185E/E176V/E277Q/F33T/G231S/G80R/H175R/I121M/I218V/I322F/K168Q/L300P/L318F/M331R/P217A/Q94H/R138Q/T323A/T345S/T97I/V358M)
A*3301 = A*3301 (Homo sapiens, UniProt P04439, A270S/D185E/E176V/E277Q/E87N/F33T/G231S/H175R/I121M/I218V/I322F/K168Q/K210R/L300P/L318F/M331R/P217A/Q86R/Q94H/R138Q/T323A/T345S/T97I/V358M/Y195H)
HLA-A3.2 (A*0301) = HLA-A3.2 (A*0301) (Homo sapiens, UniProt P04439)
A*6801 = A*6801 (Homo sapiens, UniProt P04439, A269V/D185E/E176V/E277Q/E87N/F33Y/G231S/I121M/I166T/I218V/L180W/L300P/L318F/N151K/P208A/P217A/Q86R/R169H/T345S)
HLA-A11 (A*1101) = HLA-A11 (A*1101) (Homo sapiens, UniProt P04439, A114D/D185E/E176A/F33Y/L180Q/S129P/T187R)

| Sequence | IC50 (A31 (A*3101)) | IC50 (A*3301) | IC50 (HLA-A3.2 (A*0301)) | IC50 (A*6801) | IC50 (HLA-A11 (A*1101)) |
| --- | --- | --- | --- | --- | --- |
| SFMELVRPFK [Peptide 88.0163] | 7.7 nM | 3.3 nM | 2020 nM | 1390 nM | 199 nM |
| KTLLQPYCLY [Peptide 88.0153] | 4280 nM | 19600 nM | 180 nM | > 20000 nM | 405 nM |
| LLYGPANTGK [Peptide 1587.56] | 6300 nM | 14500 nM | 14 nM | 44 nM | 8.8 nM |
| MTYVAWDSVY [Peptide 1589.07] | 19400 nM | > 20000 nM | 616 nM | 73 nM | 892 nM |
| GTAKSVTCTR [Peptide 1556.31] | 214 nM | 168 nM | 960 nM | 208 nM | 98 nM |
| KLCLRFLSK [Peptide 1571.20] | 271 nM | > 20000 nM | 18 nM | > 20000 nM | 279 nM |
| GTMCRHYKR [Peptide 1587.34] | 20 nM | 226 nM | 611 nM | 56 nM | 31 nM |
| ETQRQQFLK [Peptide 1589.32] | 3920 nM | 80 nM | 1010 nM | 30 nM | 28 nM |
| EFTAFLDAFK [Peptide 88.0179] | 16500 nM | 14 nM | 5790 nM | 127 nM | 968 nM |
| VFADLRIVYR [Peptide 78.0073] | 31 nM | 52 nM | > 20000 nM | 197 nM | 2090 nM |
| STWHWTGCNK [Peptide 1589.28] | 160 nM | 1900 nM | 72 nM | 32 nM | 15 nM |
| SFFSRTWCR [Peptide 1587.42] | 2.2 nM | 3.5 nM | 2380 nM | 28 nM | 155 nM |
| VTYNSEVQR [Peptide 1589.29] | 40 nM | 152 nM | 71 nM | 23 nM | 25 nM |
| HLYGYSWYK [Peptide 76.0153] | 48 nM | 61 nM | 12 nM | 16 nM | 11 nM |
| KSFFSRTWCK [Peptide 88.0170] | 5.4 nM | 22 nM | 7.9 nM | 219 nM | 12 nM |
| VSIEWRQRR [Peptide 9017.0089] | 1.5 nM | 7.1 nM | 1350 nM | 41 nM | 13 nM |
| VSIEWRLRR [Peptide 9017.0088] | 3.1 nM | 29 nM | 338 nM | 131 nM | 6.9 nM |
| AAEGVGAASR [Peptide 9017.0187] | 3270 nM | 5100 nM | > 20000 nM | 450 nM | 478 nM |
| GVLILALLR [Peptide 88.0338] | 2300 nM | 3890 nM | 2880 nM | 943 nM | 56 nM |
| VFCGPANTGK [Peptide 88.0150] | 485 nM | 811 nM | 1950 nM | 3000 nM | 1660 nM |
| KFYSKISEYR [Peptide 78.0081] | 48 nM | 79 nM | 1680 nM | 264 nM | 18000 nM |
| RLLKETELRK [Peptide 9012.0248] | 7010 nM | > 20000 nM | 27 nM | 12800 nM | 52 nM |
| AILGHIVIPR [Peptide 9017.0224] | 2 nM | 102 nM | 31 nM | 42 nM | 48 nM |
| HSRIGILRQR [Peptide 9017.0242] | 9.8 nM | 418 nM | 637 nM | 253 nM | 6910 nM |
| SSCMGGMNR [Peptide 1556.59] | 54 nM | 39 nM | 206 nM | 110 nM | 16 nM |
| TIAYIEYRK [Peptide 9017.0119] | 3300 nM | 892 nM | 911 nM | 7.8 nM | 24 nM |
| VTIYYGVPVWR [Peptide 1525.04] | 4 nM | 51 nM | 920 nM | 3.4 nM | 3 nM |
